The Kd is the equilibrium constant for the complex coming apart.

Our source for the Kd values is patent US11319299B2, “Substituted carboxamides as inhibitors of WDR5 protein-protein binding” (PROPELLON THERAPEUTICS INC., priority 2016, dated 2022).

The target in one test is WDR5 (Homo sapiens (Human), UniProt P61964). Put plainly: Surface Plasmon Resonance (SPR) assay, KD and residence time. The test is classed as binding. To be noted: surface plasmon resonance (SPR) assay; read-out: WDR5 binding affinity (KD).
For the molecule `CC1CN(c2cc(Cl)c(-c3cnc(N4CCOCC4)nc3)cc2NC(=O)c2c[nH]c(=O)cc2C(F)(F)F)CCN1C` (stereo in doubt) [Example 81, N-[4-chloro-5-(2-morpholin-4-ylpyrimidin-5-yl)-2-[(3R)-3,4-dimethylpiperazin-1-yl]phenyl]-6-oxo-4-(trifluoromethyl)-1H-pyridine-3-carboxamide], the Kd is 11.1 nM. For `CC1CN(c2cc(F)c(-c3ccc(N4CCOCC4)nc3)cc2NC(=O)c2c[nH]c(=O)cc2C(F)(F)F)CCN1C` (stereo in doubt) [Example 239, N-[4-fluoro-5-(6-morpholin-4-ylpyridin-3-yl)-2-[(3R)-3,4-dimethylpiperazin-1-yl]phenyl]-6-oxo-4-(trifluoromethyl)-1H-pyridine-3-carboxamide], the Kd turned out to be 1.07 nM. As for `C[C@@H]1CN(c2cc(F)c(-c3ccc(N4CCOCC4)cc3)cc2NC(=O)c2cn(C)c(=O)cc2C(F)(F)F)C[C@H](C)N1C` [Example 204, N-[4-fluoro-5-(4-morpholin-4-ylphenyl)-2-[(3R,5S)-3,4,5-trimethylpiperazin-1-yl]phenyl]-1-methyl-6-oxo-4-(trifluoromethyl)pyridine-3-carboxamide], the Kd was 13.8 nM. Take `COc1cc(C(=O)Nc2cc(-c3cnc(N4CCOCC4)nc3)c(F)cc2N2C[C@@H](C)N(C)[C@@H](C)C2)ccc1F` [Example 75, 4-fluoro-N-[4-fluoro-5-(2-morpholin-4-ylpyrimidin-5-yl)-2-[(3R,5S)-3,4,5-trimethylpiperazin-1-yl]phenyl]-3-methoxybenzamide]: the Kd was found to be 40.9 nM. With `C[C@@H]1CN(c2cc(F)c(-c3cnc(N4CCOC(C)(C)C4)nc3)cc2NC(=O)c2c[nH]c(=O)cc2C(F)(F)F)C[C@H](C)N1C` [Example 350, N-[5-[2-(2,2-dimethylmorpholin-4-yl)pyrimidin-5-yl]-4-fluoro-2-[(3R,5S)-3,4,5-trimethylpiperazin-1-yl]phenyl]-6-oxo-4-(trifluoromethyl)-1H-pyridine-3-carboxamide], the Kd was determined as 1.42 nM. On to `CC(C)[C@@H]1CN(c2ncc(-c3cc(NC(=O)c4c[nH]c(=O)cc4C(F)(F)F)c(N4CCN(C)[C@H](C)C4)cc3F)cn2)CCO1` (stereo in doubt) [Example 347, N-[4-fluoro-2-[(3R)-3,4-dimethylpiperazin-1-yl]-5-[2-[(2R)-2-propan-2-ylmorpholin-4-yl]pyrimidin-5-yl]phenyl]-6-oxo-4-(trifluoromethyl)-1H-pyridine-3-carboxamide], for which the Kd came out at 0.606 nM.

Regarding `C[C@@H]1CN(c2cc(F)c(-c3cncc(C(F)(F)F)c3)cc2NC(=O)c2c[nH]c(=O)cc2C(F)(F)F)C[C@H](C)N1C` [Example 173, N-[4-fluoro-2-[(3R,5S)-3,4,5-trimethylpiperazin-1-yl]-5-[5-(trifluoromethyl)pyridin-3-yl]phenyl]-6-oxo-4-(trifluoromethyl)-1H-pyridine-3-carboxamide], the Kd came to 2.78 nM. As for `C[C@@H]1CN(c2cc(F)c(-c3cnc(N4CCOCC4)nc3)cc2NC(=O)c2cccc(F)c2F)C[C@H](C)N1C` [Example 229, 2,3-difluoro-N-[4-fluoro-5-(2-morpholin-4-ylpyrimidin-5-yl)-2-[(3R,5S)-3,4,5-trimethylpiperazin-1-yl]phenyl]benzamide], the Kd came to 83 nM.

Consider `C[C@@H]1CN(c2cc(F)c(-c3cnc(N4CCOCC4)nc3)cc2NC(=O)c2ccc(F)c(F)c2)C[C@H](C)N1C` [Example 111, 3,4-difluoro-N-[4-fluoro-5-(2-morpholin-4-ylpyrimidin-5-yl)-2-[(3R,5S)-3,4,5-trimethylpiperazin-1-yl]phenyl]benzamide], for which the Kd worked out at 70.6 nM.

The same test, now with this note: surface plasmon resonance (SPR); read-out: WDR5 binding affinity (KD).
For the molecule `C[C@@H]1CN(c2cc(F)c(-c3ccc(C(N)=O)c(F)c3F)cc2NC(=O)c2c[nH]c(=O)cc2C(F)(F)F)C[C@H](C)N1C` [Example 670, N-[5-(4-carbamoyl-2,3-difluorophenyl)-4-fluoro-2-[(3R,5S)-3,4,5-trimethylpiperazin-1-yl]phenyl]-6-oxo-4-(trifluoromethyl)-1H-pyridine-3-carboxamide], the Kd was found to be 3.85 nM. The same measure, in the same setting: in the case of `C[C@@H]1CN(c2cc(F)c(-c3ccc(N4CCOCC4)c(F)c3)cc2NC(=O)c2cn(C)c(=O)cc2C(F)F)C[C@H](C)N1C` [Example 449, 4-(difluoromethyl)-N-[4-fluoro-5-(3-fluoro-4-morpholin-4-ylphenyl)-2-[(3R,5S)-3,4,5-trimethylpiperazin-1-yl]phenyl]-1-methyl-6-oxopyridine-3-carboxamide] it was 9.03 nM; in that of `CC1CN(c2cc(F)c(-c3ccnc(N4CCOCC4)n3)cc2NC(=O)c2ccc(F)cc2C(F)(F)F)CCN1C` (stereo in doubt) [Example 614, 4-fluoro-N-[4-fluoro-5-(2-morpholin-4-ylpyrimidin-4-yl)-2-[(3R)-3,4-dimethylpiperazin-1-yl]phenyl]-2-(trifluoromethyl)benzamide], 0.733 nM; in that of `C[C@@H]1CN(c2cc(F)c(C3=CCN(c4ncc(F)cn4)C3)cc2NC(=O)c2c[nH]c(=O)cc2C(F)(F)F)C[C@H](C)N1C` [Example 440, N-[4-fluoro-5-[1-(5-fluoropyrimidin-2-yl)-2,5-dihydropyrrol-3-yl]-2-[(3R,5S)-3,4,5-trimethylpiperazin-1-yl]phenyl]-6-oxo-4-(trifluoromethyl)-1H-pyridine-3-carboxamide], 2.88 nM. On the same count and under the same terms, the figure for `C[C@@H]1COCCN1c1ncc(-c2cc(NC(=O)c3c[nH]c(=O)cc3C(F)(F)F)c(N3C[C@@H](C)N(C)[C@@H](C)C3)cc2F)cn1` [Example 469, N-[4-fluoro-5-[2-[(3R)-3-methylmorpholin-4-yl]pyrimidin-5-yl]-2-[(3R,5S)-3,4,5-trimethylpiperazin-1-yl]phenyl]-6-oxo-4-(trifluoromethyl)-1H-pyridine-3-carboxamide] is 5.64 nM. Still for that read-out and setting: in the case of `C[C@@H]1CN(c2cc(F)c(-c3cnn(CCN4CCOCC4)c3)cc2NC(=O)c2c[nH]c(=O)cc2C(F)(F)F)C[C@H](C)N1C` [Example 716, N-[4-fluoro-5-[1-(2-morpholin-4-ylethyl)pyrazol-4-yl]-2-[(3R,5S)-3,4,5-trimethylpiperazin-1-yl]phenyl]-6-oxo-4-(trifluoromethyl)-1H-pyridine-3-carboxamide] it was 2.42 nM.

Take `O=C(Nc1cc(-c2cnc(N3CCOCC3)nc2)c(F)cc1N1CCN(C2CC2)CC1)c1c[nH]c(=O)cc1C(F)(F)F` [Example 561, N-[2-(4-cyclopropylpiperazin-1-yl)-4-fluoro-5-(2-morpholin-4-ylpyrimidin-5-yl)phenyl]-6-oxo-4-(trifluoromethyl)-1H-pyridine-3-carboxamide]: the Kd amounted to 23.5 nM. As to `COc1cc(C(F)(F)F)c(C(=O)Nc2cc(-c3cnc(N4CCOCC4)nc3)c(F)cc2N2C[C@@H](C)N(C)[C@@H](C)C2)cn1` [Example 506, N-[4-fluoro-5-(2-morpholin-4-ylpyrimidin-5-yl)-2-[(3R,5S)-3,4,5-trimethylpiperazin-1-yl]phenyl]-6-methoxy-4-(trifluoromethyl)pyridine-3-carboxamide], the Kd turned out to be 354 nM.

On to `CC1CN(c2cc(F)c(-c3ccc(C(N)=O)c(F)c3F)cc2NC(=O)c2ccc(F)cc2C(F)(F)F)CCN1C` (stereo in doubt) [Example 668, 2,3-difluoro-4-[2-fluoro-5-[[4-fluoro-2-(trifluoromethyl)benzoyl]amino]-4-[(3R)-3,4-dimethylpiperazin-1-yl]phenyl]benzamide], for which the Kd is 18.3 nM.
